Experimental data reported in patent publication US11174282B2, “Aminosteroid derivatives and process for producing same” (UNIVERSITÉ LAVAL, priority 2016, dated 2021).
“Also recorded” adds a separate entry of the source. Where two headings read alike, the source gives them in different places.

Tests used:
[1] = Metabolic stability assay, human liver microsomes; conditions: 10 μM, 1 h, 40 μg human liver microsomes; result in words
Procedure: (§2) Assays were performed at 37° C. for 1 h, with or without 10 mM NADPH in the presence of 40 μg of human liver microsome from Corning (Melrose, Mass., USA) and 10 μM of aminosteroid substrate in a final 100 μL volume of 50 mM Tris buffer (pH 7.4) supplemented with 10 mM MgCl2. Assays were ended by adding 100 μL of MeOH followed by centrifugation at 13,000 g for 10 min to obtain a pellet of proteins. The supernatant of 2 assays was pooled and submitted to HPLC-MS analysis (Shimadzu LCMS-2020 APCI, Alltima HP C18 (250 mm×4.6 mm, 5 μm) column, MeOH:H2O gradient). Remaining substrate (expressed in %) was calculated by dividing the area under the curve of the substrate for the assays without NADPH by the area under the curve of the substrate for the assays with NADPH and multiplied by 100. Values represent the average of 2 independent experiments.

Water solubility = assay type: physicochemical; conditions: relative to RM-581-OH
[2] = tested on: Human pancreas cancer cells (PANC-1); test: Cell proliferation assay (MTS), PANC-1; assay type: cell-based; conditions: Homo sapiens, PANC-1, 72 h, 3 days treatment, MTS; read-out: IC50 (μM) Pancreatic cancer PANC-1
Procedure: (§1) The different aminosteroids were dissolved in methanol (50 mM).

[3] = tested on: PANC-1, BxPC-3, Hs766, OVCAR-3, Caov3, SKOV3, MCF-7, T-47D and LAPC-4 cell lines; test: Cytotoxic activity screening at 5 and 1 μM on cancer cell lines; conditions: independently of the cancer cell line tested, result in words
Procedure: The cell proliferation assay was performed using 3-(4,5-dimethylthiazol-2-yl)-5-(3-carboxymethoxyphenyl)2-(4-sulfophenyl)-2H-tetrazolium (MTS) (Cell Titer 96 Aqueous, Promega, Nepean, ON, Canada) as previously described [3, 4, 5]. Briefly, cells were plated in triplicate in 96-well plates (1×10^4 cells/well) in appropriate culture medium (total of 90 μL). Before each treatment, the cells were incubated at 37° C. in a 5% CO2 humidified atmosphere for 24 h. The different aminosteroids were dissolved in methanol (50 mM). The stock solutions were diluted at multiple concentrations with culture media in order to obtain the desired final concentration followed by the addition of 10 μL to each well, and the mixture incubated for 3 days. Following treatment, MTS (10 μL) was added to each well and the mixture was incubated for 4 h.

[4] = tested on: OVCAR-3 cells (ovarian cancer); test: Cell proliferation assay (MTS), OVCAR-3; assay type: cell-based; conditions: Homo sapiens, OVCAR-3, 72 h, 3 days treatment, MTS; read-out: IC50 (μM) Ovarian cancer OVCAR-3
Procedure: as §1

[5] = tested on: LNCaP (prostate cancer) cells; test: Cell proliferation assay (MTS), LNCaP; assay type: cell-based; conditions: Homo sapiens, 72 h, read-out: IC50 (μM) Prostate cancer LNCaP
Procedure: as §1

[6] = tested on: PC-3 (prostate cancer) cells; test: Cell proliferation assay (MTS), PC-3; assay type: cell-based; conditions: 72 h, read-out: IC50 (μM) Prostate cancer PC-3
Procedure: as §1

[7] = tested on: T-47D breast cancer cell line; test: Cell proliferation assay (MTS), T-47D; assay type: cell-based; conditions: 72 h; for IC50: Homo sapiens, T47D, 3 days treatment, MTS
Procedure: as §1

[8] = tested on: LAPC-4 (prostate cancer) cells; test: Cell proliferation assay (MTS), LAPC-4; assay type: cell-based; conditions: Homo sapiens, LAPC4, 72 h, 3 days treatment, MTS; read-out: IC50 (μM) Prostate cancer LAPC-4
Procedure: as §1

[9] = tested on: MCF-7 breast cancer cells; test: Cell proliferation assay (MTS), MCF-7; assay type: cell-based, human; conditions: 3 days treatment
Procedure: as §1

[10] = human, microsomes, 1 h, 10 μM, pH 7.4
Procedure: as §2

[11] = tested on: MCF-10A cells (model for normal breast cells); test: Cell proliferation assay (MTS), MCF-10A; assay type: cell-based
Procedure: A selectivity index (SI) for RM-581-102 was calculated as the ratio of its IC50 value in MCF-10A cells, a cell line used as a model for normal breast cells, versus its IC50 value in MCF-7 breast cancer cells (Table 4). […] It would thus appear that the replacement of the 5α-androstane-3α,17β-diol backbone by that of mestranol, is beneficial for the selectivity of these aminosteroid derivatives.
as §1

in vivo = conditions: female, Balb/c, mouse
Procedure: The plasmatic concentration (AUC) of RM-581-102 was determined following four different methods of administration (s.c., p.o., i.v. and i.p.) at the following concentrations: 60 mg/kg of body weight in 0.1 mL for s.c. and p.o. administration; 2 mg/kg of body weight in 0.02 mL for i.v. caudal administration; and 20 mg/kg of body weight in 0.1 mL for i.p. administration. For the s.c., p.o. and i.p. administrations, RM-581-102 was first dissolved in DMSO followed by the addition of propylene glycol to obtain a final concentration of DMSO of 8%. Regarding the i.v. administration, RM-581-102 was first dissolved in DMSO (8%) followed by the addition of DMA (38%) and propylene glycol (60%). For the i.v. administration, the mice were fasted over a period of 8 h before injection of RM-581-102.
Animals: Six to seven week-old female Balb/c mice weighing approximately 18 g were obtained from Charles-River, Inc (St-Constant, Qc., Canada). The animals were acclimatized to environmental conditions (temperature: 22±3° C.; humidity: 50±20%; 12-h light/12-h dark cycles, lights on at 07:15 h) for at least 5 days before starting the experiment. The animals were housed three per cage and were allowed free access to water and a certified commercial rodent food (Rodent diet #T.2018.15, Harlan Teklad, Madison, Wis., U.S.A.). The experiments with the animals were conducted in an animal facility approved by the Canadian Council on Animal Care (CCAC) and the Association for Assessment and Accreditation of Laboratory Animal Care. The study was performed in accordance with the CCAC Guide for Care and Use of Experimental Animals. Institutional approval was obtained.
Assay: The pharmacokinetic study was carried out following four different methods of administration (s.c., p.o., i.v. and i.p.) of RM-581-102 at the following concentrations: 60 mg/kg of body weight in 0.1 mL for s.c. and p.o. administration; 2 mg/kg of body weight in 0.02 mL for i.v. caudal administration; and 20 mg/kg of body weight in 0.1 mL for i.p. administration. For the s.c., p.o. and i.p. administrations, RM-581-102 was first dissolved in DMSO followed by the addition of propylene glycol to obtain a final concentration of DMSO of 8%. Regarding the i.v. administration, RM-581-102 was first dissolved in DMSO (8%) followed by the addition of DMA (38%) and propylene glycol (60%). For the i.v. administration, the mice were fasted over a period of 8 h before injection of RM-581-102. Blood samples for the determination of RM-581-102 plasma concentrations were collected by cardiac puncture at target intervals ranging from 5 minutes to 24 hours post-dose administration from 3 mice/time point. The blood samples were collected in Microvette® potassium-EDTA (ethylenediamine tetra-acetic acid)-coated tubes (Sarstedt AG & Co, Germany) and centrifuged at 3200 rpm for 10 minutes at 4° C. The plasma was subsequently collected and stored at −80° C. until analysis by liquid chromatography/mass spectrometry/mass spectrometry (LC/MS/MS).
The plasma concentrations of RM-581-102 was determined by LC/MS/MS analysis using a procedure developed at CHUQ (CHUL)—Research Center (Bioanalytical Service). For extraction from the plasma, a plasma sample (100 μL) was transferred to individual tubes and 600 μL of ammonium acetate (1 mM) was added. A methanolic solution (50 μL) containing a deuterated steroid internal standard was then added to each tube. Samples were then transferred on Strata-X SPE columns (Phenomenex, Torrance, Calif., USA) and each column was washed with water and methanol:water (10:90, v/v). RM-581-102 was then eluted with 5 mL of methanol containing 1 mM ammonium acetate.

[12] = tested on: renal proximal tubule epithelial cells (RPTEC); test: Toxicity on normal cells (MTS), RPTEC; assay type: cell-based, human; conditions: Homo sapiens, RPTEC, normal (kidney) cells; read-out: IC50 (μM) RPTEC (normal cells)
Procedure: as §1

[13] = tested on: human MCF-7 breast tumors; test: MCF-7 tumor growth (xenograft) in ovariectomized nude mice; assay type: in vivo; conditions: 60 mg/kg s.c., 28-day treatment
From the text: FIG. 2 is an illustration of the effect of aminosteroid RM-581-102 (compound 6) on MCF-7 tumor growth. A) Effect of a 28-day treatment on 17β-estradiol (E2)-induced growth of human MCF-7 breast tumors in ovariectomized (OVX) nude mice in accordance with an embodiment of the present disclosure. Tumor sizes are expressed as the percentage of initial tumor area (day 1 of treatment=100%). Data are expressed as the mean±SEM (n=10-12 tumors and 6-7 mice per group). […] B) Initial and final body weight of the mice.

## C#C[C@@]1(O)CC[C@H]2[C@@H]3CCc4cc(OP(=O)(O)O)c(N5CCN(C(=O)[C@@H]6CCCN6C(=O)c6ccc7ccccc7n6)CC5)cc4[C@H]3CC[C@@]21C [Compound 5, (17β)-17-ethynyl-17-hydroxy-2-{4-[1-(quinolin-2-ylcarbonyl)-L-prolyl]piperazin-1-yl}estra-1,3,5(10)-trien-3-yl dihydrogen phosphate]
[1]
  metabolic stability (% of remaining compound): stability similar to its phenolic counterpart
Water solubility
  water solubility: significant enhancement of water solubility
[2]
  IC50: 2.6 ± 0.1 µM
[3]
  cytotoxic activity in screening (cell survival): without adversely affecting the antiproliferative properties; also recorded: only slight differences in their respective levels of activity
[4]
  IC50: 4.6 ± 0.7 µM
[5]
  IC50: 0.6 ± 0.05 µM
[6]
  IC50: 1.3 ± 0.05 µM
[7]
  IC50: 0.3 ± 0.05 µM
[8]
  IC50: 0.3 ± 0.07 µM
[9]; Homo sapiens, MCF7, 72 h
  IC50: 1.5 ± 0.3 µM

## C#C[C@]1(O)CC[C@H]2[C@@H]3CCc4cc(OC)c(N5CCN(C(=O)[C@@H]6CCCN6C(=O)c6ccc7ccccc7n6)CC5)cc4[C@H]3CC[C@@]21C [RM-581, {4-[17α-Ethynyl-17I-hydroxy-3-methoxyestra-1,3,5(10)-trien-2-yl]piperazin-1-yl}[(2S)-1-(quinolin-2-ylcarbonyl)pyrrolidin-2-yl]methanone]
[10]
  metabolic stability (% of remaining compound): significantly more stable toward phase-I hepatic metabolism than RM-133
[2]
  IC50: 3.9 ± 0.9 µM
[4]
  IC50: 5 ± 0.5 µM
[11]; Homo sapiens, MCF-10A, model for normal breast cells
  IC50: 16.8 µM
[11]; in vitro MCF-7 and MCF-10A cell models
  times more selective compared to RM-133: 5.1 times
[11]; ratio of IC50 in MCF-10A cells versus IC50 in MCF-7 cells
  Selectivity Index: 15.3
In vivo; ip, 20 mg/kg
  AUC(0-t): 11400 ng·h/mL
  concentration at 3 h: 5300 ng/mL
In vivo; iv, 2 mg/kg
  AUC(0-t): 595 ng·h/mL
  concentration at 3 h: 300 ng/mL
In vivo; po, 60 mg/kg
  AUC(0-t): 5540 ng·h/mL
  concentration at 3 h: 550 ng/mL
In vivo; sc, 60 mg/kg
  AUC(0-t): 7760 ng·h/mL
  concentration at 3 h: 600 ng/mL
[5]; 3 days treatment, MTS
  IC50: 1.2 ± 0.6 µM
[6]; 3 days treatment, MTS
  IC50: 1.6 ± 0.3 µM
[7]
  IC50: 0.5 ± 0.05 µM
[7]; T-47D, 1.0 and 5 μM, vs paclitaxel, gemcitabine, fluorouacil, oxaliplatin, irinotecan
  cytotoxic activity compared with known antineoplastic agents: stronger cytotoxic activities at both concentrations
[8]
  IC50: 0.6 ± 0.3 µM
[9]
  IC50: 2.6 ± 0.3 µM
[9]; listed as RM-581-102
  IC50: 1.1 ± 0.1 µM
[12]
  IC50: > 50 µM
[13]; compared with control groups
  behavioral changes, signs of toxicity and weight loss: no behavioral changes, signs of toxicity and weight loss
[13]; 6 days per week, E2-stimulated OVX nude mice
  MCF-7 tumor growth (tumor size, % of initial tumor area): complete blockade of tumor growth; also recorded: significant tumor regression from day 21 up to day 28
